From US5858667A, “Method for the enumeration of micronucleated erythrocyte populations with a single laser flow cytometer” (Litron Laboratories, priority 1996, dated 1999)
Where “and” joins values, the source holds several entries; their conditions need not be identical. Identical values can stand only once. Entries after “also recorded” stand apart in the source; their conditions may differ.

Tests used:
[1] = test system: normochromatic erythrocytes; experiment: Flow cytometric micronucleus assay (FITC-anti-CD71/propidium iodide), normochromatic erythrocytes, MMS-treated mice; format: in vivo, male BALB/c mice; details: for Average Freq. (%) MN-NCE: average of 5 mice; for Freq. (%) MN-NCE / No. MN-NCE / No. NCE: individual mouse
Protocol: (§1) Optimum flow cytometer settings are extremely important in this process. The fluorescent signals of the stained micronucleated normochromatic erythrocyte and micronucleated reticulocyte populations should be clearly resolved from those of the normochromatic erythrocyte and reticulocyte cell populations. In accordance with the method of the present invention, the analyses described herein were carried out with a single laser flow cytometer (Fac Star^PLUS ™, Becton Dickenson). The 5 W argon ion laser was tuned to provide 488 nm excitation. Cells were passed through the laser at an average rate of 2,500-8,000 erythrocytes/second. One embodiment of the invention is to use a 20μ elliptical beam that is focused at the sample stream. The results and analyses described herein were obtained with said beam. As known to those skilled in the art, different beam shapes are also acceptable.
(§2) The flow cytometer is equipped with four photomultiplier tubes (PMTs) which are used to sense forward light scatter, side light scatter, red fluorescence signals, and green fluorescence signals. Proper filters must be placed before the green and red photomultiplier tubes. In accordance with the methods of the present invention, adequate fluorescent signals can be obtained if a 520 nm long pass filter and a 555 nm short pass filter is placed before the green PMT. In accordance with the methods of the present invention, a 580 nm long pass filter in front of the red PMT is desirable. This is a preferred configuration that allows optimal fluorescence detection. However, as known to those skilled in the art, other filter sets may be acceptable. The signals received by the PMTs and the light scatter photodiode are processed by an in-line computer and cell populations of interest are quantitated (see, e.g., FIG. 1) using software conventional to the art. The data may be acquired and processed as either logarithmic or linear signals. In one configuration of the invention, log data was acquired for the forward light scatter, side scatter, as well as red and green fluorescence peak height signals.
(§3) Erythrocytes were isolated by gating on forward and side light scatter parameters. The stop mode of each analysis was reached when 500,000 total erythrocytes were interrogated. A window was set up corresponding to cells low in both fluorescence due to the labelled antibody with binding specificity for a surface marker for erythroblasts/reticulocytes (e.g., anti-CD71 antibody) and fluorescence due to the nucleic acid staining dye (e.g., propidium iodide), such as for detecting normochromatic erythrocytes in the erythrocyte population. A second gate was used to define cells low in anti-CD71 fluorescence and high in propidium iodide fluorescence, such as for detecting micronucleated normochromatic erythrocytes in the erythrocyte population. Another region corresponding to cells which were high in anti-CD71 fluorescence and low in propidium iodide fluorescence, such as for detecting reticulocytes in the erythrocyte population. A fourth region corresponding to cells which were high in both anti-CD71 fluorescence and in propidium iodide fluorescence was defined for detecting micronucleated reticulocytes in the erythrocyte population. Having defined these regions, the frequency of reticulocytes, micronucleated reticulocytes, micronucleated normochromatic erythrocytes, and normochromatic erythrocytes were automatically determined by the flow cytometry software.
(§4) Propidium iodide and FITC have been employed to simultaneously label nucleic acids and cell surface antigens in human B-cell lymphomas (Kruth et al., 1981, Cancer Res. 41:4895-4899; Montecucco et al., 1985, Basic Appl. Histochem. 29:275-2821). In the method according to the present invention the combined use of a nucleic acid staining dye, such as propidium iodide, and FITC-antibody labeling is utilized to differentially stain micronucleated reticulocytes. […]

[2] = test system: reticulocytes; experiment: Flow cytometric micronucleus assay (FITC-anti-CD71/propidium iodide), reticulocytes, MMS-treated mice; format: in vivo, male BALB/c mice; details: for Average Freq. (%) MN-RET: average of 5 mice; for Freq. (%) MN-RET / No. MN-RET / No. RET: individual mouse
Protocol: as §1, §2, §3, §4

[3] = test system: micronuclei; details: previous observations, different methodologies; cited from earlier work
[4] = test system: micronucleated polychromatic erythrocytes; details: administered 2 hours before clastogen exposure; cited from earlier work
[5] = 0-72 h after 100 mg MMS/kg i.p., in words

COS(C)(=O)=O [MMS, methyl methanesulfonate]
micronuclei frequency in the mature normochromatic erythrocyte population, time course [1, 5]: rise gradually over the course of the experiment; also recorded: rose slightly
Average Freq. (%) MN-NCE ([1]; 24 h after 100 mg MMS/kg i.p.): 0.26%
Freq. (%) MN-NCE ([1]; 24 h after 100 mg MMS/kg i.p.): 0.25% and 0.26% and 0.23% and 0.28%
No. MN-NCE ([1]; 24 h after 100 mg MMS/kg i.p.): 1244 and 1287 and 1145 and 1254 and 1391
No. NCE ([1]; 24 h after 100 mg MMS/kg i.p.): 490949 and 490112 and 488089 and 487462 and 490011
Average Freq. (%) MN-NCE ([1]; 40 h after 100 mg MMS/kg i.p.): 0.28%
Freq. (%) MN-NCE ([1]; 40 h after 100 mg MMS/kg i.p.): 0.29% and 0.26% and 0.24% and 0.30%
No. MN-NCE ([1]; 40 h after 100 mg MMS/kg i.p.): 1405 and 1285 and 1178 and 1445 and 1458
No. NCE ([1]; 40 h after 100 mg MMS/kg i.p.): 490511 and 485301 and 486302 and 484237 and 492350
Average Freq. (%) MN-NCE ([1]; 48 h after 100 mg MMS/kg i.p.): 0.30%
Freq. (%) MN-NCE ([1]; 48 h after 100 mg MMS/kg i.p.): 0.31% and 0.32% and 0.27%
No. MN-NCE ([1]; 48 h after 100 mg MMS/kg i.p.): 1515 and 1538 and 1298 and 1517 and 1339
No. NCE ([1]; 48 h after 100 mg MMS/kg i.p.): 487164 and 481651 and 480648 and 476364 and 490250
Average Freq. (%) MN-NCE ([1]; 72 h after 100 mg MMS/kg i.p.): 0.34%
Freq. (%) MN-NCE ([1]; 72 h after 100 mg MMS/kg i.p.): 0.34% and 0.36% and 0.35% and 0.33%
No. MN-NCE ([1]; 72 h after 100 mg MMS/kg i.p.): 1593 and 1573 and 1607 and 1628 and 1575
No. NCE ([1]; 72 h after 100 mg MMS/kg i.p.): 473052 and 462539 and 450096 and 461882 and 475141
frequency of micronucleated reticulocytes, time course [2, 5]: rise sharply over the course of the first 40 hours; also recorded: rise and fall quickly
Average Freq. (%) MN-RET ([2]; 24 h after 100 mg MMS/kg i.p.): 0.81%
Freq. (%) MN-RET ([2]; 24 h after 100 mg MMS/kg i.p.): 0.54% and 0.93% and 0.69% and 1.31% and 0.58%
No. MN-RET ([2]; 24 h after 100 mg MMS/kg i.p.): 46 and 88 and 80 and 162 and 55
No. RET ([2]; 24 h after 100 mg MMS/kg i.p.): 8531 and 9390 and 11532 and 12234 and 9391
Average Freq. (%) MN-RET ([2]; 40 h after 100 mg MMS/kg i.p.): 4.20%
Freq. (%) MN-RET ([2]; 40 h after 100 mg MMS/kg i.p.): 4.41% and 4.18% and 4.89% and 3.81% and 3.72%
No. MN-RET ([2]; 40 h after 100 mg MMS/kg i.p.): 386 and 592 and 652 and 581 and 262
No. RET ([2]; 40 h after 100 mg MMS/kg i.p.): 8373 and 13570 and 12679 and 14533 and 6785
Average Freq. (%) MN-RET ([2]; 48 h after 100 mg MMS/kg i.p.): 2.25%
Freq. (%) MN-RET ([2]; 48 h after 100 mg MMS/kg i.p.): 2.92% and 2.09% and 2.10% and 1.86% and 2.29%
No. MN-RET ([2]; 48 h after 100 mg MMS/kg i.p.): 355 and 366 and 396 and 431 and 211
No. RET ([2]; 48 h after 100 mg MMS/kg i.p.): 11794 and 17187 and 18484 and 22687 and 8990
Average Freq. (%) MN-RET ([2]; 72 h after 100 mg MMS/kg i.p.): 0.41%
Freq. (%) MN-RET ([2]; 72 h after 100 mg MMS/kg i.p.): 0.43% and 0.40% and 0.46% and 0.34%
No. MN-RET ([2]; 72 h after 100 mg MMS/kg i.p.): 112 and 147 and 224 and 150 and 82
No. RET ([2]; 72 h after 100 mg MMS/kg i.p.): 25838 and 36327 and 48913 and 36940 and 23744
time of maximum response (micronuclei formation) [3]: 36 h

chlorophyllin
effect on incidence of micronucleated polychromatic erythrocytes induced by gamma radiation [4]: reduced the incidence of micronucleated polychromatic erythrocytes
